Measured values published in the NIST ThermoML archive (doi:10.1016/j.jct.2006.05.008).

Assay: molar heat capacity at constant pressure
Conditions: 101.33 kPa, Crystal

CCn1cc[n+](C)c1.[Br-] [1-ethyl-3-methylimidazolium bromide]
Small (less than 1 g) adiabatic calorimetry
Conditions	molar heat capacity at constant pressure [J/K/mol]
5 K	0.322
10 K	3.336
15 K	9.171
20 K	16.81
25 K	25
30 K	33.08
35 K	40.68
40 K	47.53
45 K	53.77
50 K	59.49
60 K	69.57
70 K	78.03
80 K	85.47
80.24 K	85.68
83.06 K	87.67
85.79 K	89.36
88.55 K	91.21
90 K	92.12
91.34 K	93.01
94.15 K	94.8
96.98 K	96.52
99.83 K	98.18
100 K	98.11
102.69 K	99.88
105.57 K	101.51
108.46 K	103.1
110 K	103.8
111.37 K	104.69
114.29 K	106.29
117.22 K	107.83
120 K	109.1
120.16 K	109.35
123.11 K	110.89
126.08 K	112.42
129.06 K	113.89

Conditions	molar heat capacity at constant pressure [J/K/mol]
5.194 K	0.3611
5.579 K	0.4605
5.885 K	0.5503
6.228 K	0.6668
6.606 K	0.8178
6.985 K	0.9897
7.365 K	1.183
7.747 K	1.406
8.13 K	1.655
8.515 K	1.937
8.9 K	2.249
9.286 K	2.597
9.673 K	2.979
10.06 K	3.401
10.55 K	3.999
11.14 K	4.807
11.73 K	5.74
12.32 K	6.81
12.91 K	7.996
13.54 K	8.107
14.21 K	8.109
14.85 K	8.978
15.58 K	10.01
16.41 K	11.22
17.25 K	12.49
18.08 K	13.77
18.92 K	15.08
19.75 K	16.41
20.88 K	18.28
22.31 K	20.62
23.74 K	22.98
25.17 K	25.34
26.6 K	27.65
28.05 K	30.01
29.5 K	32.33
30.94 K	34.65
32.4 K	36.88
33.85 K	39.07
35.31 K	41.18
36.76 K	43.24
38.22 K	45.23
39.68 K	47.2
41.38 K	49.4
43.34 K	51.87
45.31 K	54.3
47.28 K	56.63
49.24 K	58.85
51.21 K	60.97
53.18 K	63
55.14 K	65
57.11 K	66.93
59.08 K	68.82
61.05 K	70.7
63.03 K	72.54
65 K	74.25
66.98 K	75.86
68.96 K	77.42
70.95 K	78.97
72.93 K	80.48
74.92 K	82.06
76.91 K	83.6
78.9 K	85.15
80.9 K	86.6
82.91 K	87.82
